# Experimental data reported in publication PMC5500888, “Structural insights into the mechanism of the membrane integral N-acyltransferase step in bacterial lipoprotein synthesis” (Nature Communications, 2017).
# Columns and labels:
# [1] = biological target: T1, LntEco (Escherichia coli, UniProt P23930); assay: TLC with fluorescence of lyso-NBD-PE formed; format: biochemical; conditions: labelled compound; NBD-PE 500 uM; co-substrate FSL-1 150 uM; 8 uM enzyme; 50 mM Tris-HCl pH 7.5, 150 mM NaCl, 1 mM TCEP, 0.02% LMNG; 37 C
# T1 construct: gene lnt; full-length membrane enzyme, N-terminal thrombin-cleavable His6-tag (pET28a, synthetic gene), expressed in E. coli C43(DE3), purified in LMNG; tag cleavage not described
# [2] = biological target: T2, LntPae (Pseudomonas aeruginosa, UniProt Q9ZI86); assay: SDS-PAGE band shift of FSL-1-biotin with western blot; format: biochemical; conditions: acyl donor 500 uM; co-substrate FSL-1-biotin 2.5-5 uM; 20 nM enzyme; 0.1% Triton X-100; pH 7.2 or 6.5; 37 C
# T2 construct: gene lnt; full-length membrane enzyme, N-terminal thrombin-cleavable His6-tag (pET28a, synthetic gene), expressed in E. coli C41(DE3), purified in LMNG; tag cleavage not described
# T2 sequence (Q9ZI86 1-511): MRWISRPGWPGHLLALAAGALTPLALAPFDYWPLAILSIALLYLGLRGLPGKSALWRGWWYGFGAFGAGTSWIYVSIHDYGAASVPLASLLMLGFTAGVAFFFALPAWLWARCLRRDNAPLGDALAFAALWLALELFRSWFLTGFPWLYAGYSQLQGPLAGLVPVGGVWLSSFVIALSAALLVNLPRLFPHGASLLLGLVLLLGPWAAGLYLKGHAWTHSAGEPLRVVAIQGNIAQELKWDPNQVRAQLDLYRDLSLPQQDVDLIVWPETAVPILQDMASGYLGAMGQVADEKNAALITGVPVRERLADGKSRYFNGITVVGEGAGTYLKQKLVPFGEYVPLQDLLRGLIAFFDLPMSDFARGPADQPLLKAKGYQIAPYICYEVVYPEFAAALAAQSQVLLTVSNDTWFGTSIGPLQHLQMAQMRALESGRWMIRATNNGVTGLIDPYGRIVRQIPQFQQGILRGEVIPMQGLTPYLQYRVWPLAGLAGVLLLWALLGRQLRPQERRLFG
SMILES,TLC with fluorescence of lyso-NBD-PE formed [1],SDS-PAGE band shift of FSL-1-biotin with western blot [2]
CCCCCCCC/C=C\CCCCCCCC(=O)OC[C@H](COP(=O)(O)OCCN)OC(=O)CCCCCCCCCCCNc1ccc([N+](=O)[O-])c2nonc12 [NBD-PE],Time course of lyso-PE production catalysed by LntEco,
CCCCCCCC/C=C\CCCCCCCC(=O)OC[C@H](COP(=O)(O)OCC(O)CO)OC(=O)CCCCCCC/C=C\CCCCCCCC (some centres unmarked) [DOPG],,"When DOPE was replaced with DOPG or DOPC, the product was formed much less efficiently"
